US20240360067A1, “DERIVATIVES OF ITACONIC ACID AND THEIR USE AS ANTI-INFLAMMATORY AGENTS” (Sitryx Therapeutics Limited, priority 2021, published 2024)

Assays:
[1] = Hepatocyte stability assay, mouse; type: in vitro ADME; details: 10 μM compound, 0.5×10^6 cells/mL, 60 min; for half-life at 10 μM: cryo-preserved hepatocytes, read-out: T½
From the text: (§1) Defrosted cryo-preserved hepatocytes (viability >70%) were used to determine the metabolic stability of a compound via calculation of intrinsic clearance (CIint; a measure of the removal of a compound from the liver in the absence of blood flow and cell binding). Clearance data are particularly important for in vitro work as they can be used in combination with in vivo data to predict the half-life and oral bioavailability of a drug.
(§2) The metabolic stability in hepatocytes assay involved a time-dependent reaction using both positive and negative controls. The cells must be pre-incubated at 37° C. then spiked with test compound (and positive control); samples taken at pre-determined time intervals were analysed to monitor the change in concentration of the initial drug compound over 60 minutes. A buffer incubation reaction (with no hepatocytes present) acted as a negative control and two cocktail solutions, containing compounds with known high and low clearance values (verapamil/7-hydroxycoumarin and propranolol/diltiazem), acted as positive controls. • 1. The assay was run with a cell concentration of 0.5×10^6 cells/mL in Leibovitz buffer. • 2. All compounds and controls were run in duplicate. • 3. Compound concentration was 10 μM. • 4. All compounds and controls were incubated with both cells and buffer to show turnover is due to hepatic metabolism. • 5. All wells on the incubation plate had 326.7 μL of either cells or buffer added. • 6. Prior to assay, cell and buffer-only incubation plates were preincubated for 10 mins at 37° C. • 7. The assay was initiated by adding compounds, 3.3 μL of 1 mM in 10% DMSO-90% Buffer; final DMSO concentration is 0.1%. • 8. Samples were taken at regular timepoints (0, 5, 10, 20, 40, 60 min) until 60 mins. • 9. Sample volume was 40 μL and added to 160 μL of crash solvent (acetonitrile with internal standard) and stored on ice. • 10. At the end of the assay, the crash plates were centrifuged at 3500 rpm for 20 mins at 4° C. • 11. 80 μL of clear supernatant was removed and mixed with 80 μL of deionised water before being analysed by LC-MS/MS.
(§3) Raw LC-MS/MS data were exported to, and analysed in, Microsoft Excel for determination of intrinsic clearance. The percentage remaining of a compound was monitored using the peak area of the initial concentration as 100%. Intrinsic clearance and half-life values were calculated using a graph of the natural log of percentage remaining versus the time of reaction in minutes.

NRF2 = NRF2 activation assay (DiscoverX PathHunter NRF2 translocation kit, U2OS cells); type: cell-based; details: for Emax: U2OS; for EC50: U2OS PathHunter cells, 6 hours
[2] = Hepatocyte stability assay, human; type: in vitro ADME; details: 10 μM compound, 0.5×10^6 cells/mL, 60 min; for half-life at 10 μM: cryo-preserved hepatocytes, read-out: T½
From the text: as §1, §2, §3

IL-6 = assay: THP-1 AlphaLISA IL-6 cytokine assay (PMA-differentiated THP-1, LPS then nigericin); type: cell-based; details: differentiated THP-1 cells, 30 min pre-incubation, LPS 24 hr, nigericin 1 hour
Description: (§4) Measuring Inhibitory Effects on IL-1β, and IL-6 Cytokine Output from THP-1s
(§5) The cytokine inhibition profiles of compounds of formula (I) were determined in a differentiated THP-1 cell assay. All assays were performed in RPMI-1640 growth medium (Gibco), supplemented with 10% fetal bovine serum (FBS; Gibco), 1% penicillin-streptomycin and 1% sodium pyruvate unless specified otherwise. The IL-1β and IL-6 cytokine inhibition assays were each run in a background of differentiated THP-1 cells as described below. All reagents described were from Sigma-Aldrich unless specified otherwise. Compounds were prepared as 10 mM DMSO stocks.
(§6) THP-1 cells were expanded as a suspension up to 80% confluence in appropriate growth medium. Cells were harvested, suspended, and treated with an appropriate concentration of phorbol 12-myristate 13-acetate (PMA) over a 72 hr period (37° C./5% CO2).
(§7) Following 72 hrs of THP-1 cell incubation, cellular medium was removed and replaced with fresh growth media containing 1% of FBS. Working concentrations of compounds were prepared separately in 10% FBS treated growth medium and pre-incubated with the cells for 30 minutes (37° C./5% CO2). Following the 30 minute compound pre-incubation, THP-1s were treated with an appropriate concentration of LPS and the THP-1s were subsequently incubated for a 24 hr period (37° C./5% CO2). An appropriate final concentration of Nigericin was then dispensed into the THP-1 plates and incubated for 1 hour (37° C./5% CO2) before THP-1 supernatants were harvested and collected in separate polypropylene 96-well holding plates.
(§8) Reagents from each of the IL-1β and IL-6 commercial kits (Perkin Elmer) were prepared and run according to the manufacturer's instructions. Subsequently, fluorescence signal detection in a microplate reader was measured (EnVision® Multilabel Reader, Perkin Elmer).
(§9) Percentage inhibition was calculated per cytokine by normalizing the sample data to the high and low controls used within each plate (+/−LPS respectively).

IL-1β = assay: THP-1 AlphaLISA IL-1β cytokine assay (PMA-differentiated THP-1, LPS then nigericin); type: cell-based; details: 30 min pre-incubation, LPS 24 hr, nigericin 1 hour
Description: as §4, §5, §6, §7, §8, §9

[3] = Homo sapiens, +GSH, normalised to dimethyl fumarate high control
[4] = Homo sapiens, −GSH, normalised to dimethyl fumarate high control
[5] = Homo sapiens, THP-1, differentiated THP-1 cells

CIint ([1]; Mouse hepatocytes) [μL min^−1 10^−6 cells]	half-life at 10 μM [1] [min]	EC50 (NRF2; Homo sapiens, +GSH) [µM]	EC50 (NRF2; Homo sapiens, −GSH) [µM]	CIint ([2]; Human hepatocytes) [μL min^−1 10^−6 cells]	half-life at 10 μM [2] [min]	IC50 (IL-6; Homo sapiens) [µM]	IC50 (IL-1β; [5]) [µM]	Compound	Emax (NRF2; [3]) [%]	Emax (NRF2; [4]) [%]	T½ ([1]; Mouse hepatocytes) [min]	T½ ([2]; Human hepatocytes) [min]	EC50 (NRF2; −GSH) [µM]	NRF2 activation Emax, −GSH (NRF2; −GSH, normalised to dimethyl fumarate high control) [%]	IC50 (IL-6) [µM]	IC50 (IL-1β; differentiated THP-1 cells) [µM]
>460	< 3	> 100	51	>460	< 3	10.8	7.6	C=C(CC(=O)OC)C(=O)OC1(c2ccc(C(F)(F)F)cc2)CCC1 [Example 8, 4-methyl 1-(1-(4-(trifluoromethyl)phenyl)cyclobutyl) 2-methylenesuccinate]	38	51	–	–	–	–	–	–
508	3	51.3	26.3	92	14	7.3	5.3	C=C(CC(=O)NCc1ncc[nH]1)C(=O)OC1(c2ccc(C(F)(F)F)cc2)CCC1 [Example 15, 1-(4-(trifluoromethyl)phenyl)cyclobutyl 4-(((1H-imidazol-2-yl)methyl)amino)-2-methylene-4-oxobutanoate]	86	131	–	–	–	–	–	–
449	3	–	–	27	44	11.1	12.6	C=C(CC(=O)NC)C(=O)OC1(c2ccc(C(F)(F)F)cc2)CCC1 [Example 9, 1-(4-(trifluoromethyl)phenyl)cyclobutyl 4-(methylamino)-2-methylene-4-oxobutanoate]	–	–	–	–	–	–	–	–
>460	< 3	–	–	98	12	13.8	60	C=C(CC(=O)N(C)C)C(=O)OC1(c2ccc(C(F)(F)F)cc2)CCC1 [Example 10, 1-(4-(trifluoromethyl)phenyl)cyclobutyl 4-(dimethylamino)-2-methylene-4-oxobutanoate]	–	–	–	–	–	–	–	–
8	219	–	–	6	314	> 100	9.2	C=C(CC(=O)O)C(=O)OC1(c2ccc(C(F)(F)F)cc2)COC1 [Example 4, 3-(((3-(4-(trifluoromethyl)phenyl)oxetan-3-yl)oxy)carbonyl)but-3-enoic acid]	–	–	–	–	–	–	–	–
>460	< 3	–	–	114	11	5.3	5.9	C=C(CC(=O)NCc1nccn1C)C(=O)OC1(c2ccc(C(F)(F)F)cc2)CCC1 [Example 16, 1-(4-(trifluoromethyl)phenyl)cyclobutyl 4-(((1-methyl-1H-imidazol-2-yl)methyl)amino)-2-methylene-4-oxobutanoate]	–	–	–	–	–	–	–	–
138	9	–	–	59	25	4	3.1	C=C(CC(=O)NCCN(C)C)C(=O)OC1(c2ccc(C(F)(F)F)cc2)CCC1 [Example 12, 1-(4-(trifluoromethyl)phenyl)cyclobutyl 4-((2-(dimethylamino)ethyl)amino)-2-methylene-4-oxobutanoate]	–	–	–	–	–	–	–	–
–	–	–	–	–	–	–	–	C=C(CC(=O)O)C(=O)OC [1-monomethyl itaconate, reference compound]	–	–	–	–	30.1	44	> 100	> 100
–	–	–	–	–	–	12.4	15.3	C=C(CC(=O)NC(CO)C(N)=O)C(=O)OC1(c2ccc(C(F)(F)F)cc2)CCC1 (centres unmarked) [Example 17, 1-(4-(trifluoromethyl)phenyl)cyclobutyl 4-((1-amino-3-hydroxy-1-oxopropan-2-yl)amino)-2-methylene-4-oxobutanoate]	–	–	–	–	–	–	–	–
<3	> 460	–	–	<3	> 460	54.8	5.4	C=C(CC(=O)O)C(=O)O[C@@H](C)c1ccc(C(F)(F)F)cc1 [Example 1, (S)-3-((1-(4-(trifluoromethyl)phenyl)ethoxy)carbonyl)but-3-enoic acid]	–	–	–	–	–	–	–	–
11	118	–	–	8	219	65.6	7.9	C=C(CC(=O)O)C(=O)OC1CCCc2cc(C(F)(F)F)ccc21 (single isomer, unassigned) [Example 7, 3-(((6-(trifluoromethyl)-1,2,3,4-tetrahydronaphthalen-1-yl)oxy)carbonyl)but-3-enoic acid]	–	–	–	–	–	–	–	–
–	–	–	–	–	–	> 100	> 100	C=C(CC(=O)OC)C(=O)OC [dimethyl itaconate, reference compound]	–	–	–	–	–	–	–	–

Compound	CIint ([1]; Mouse hepatocytes) [μL min^−1 10^−6 cells]	half-life at 10 μM [1] [min]	EC50 (NRF2; Homo sapiens, +GSH) [µM]	EC50 (NRF2; Homo sapiens, −GSH) [µM]	CIint ([2]; Human hepatocytes) [μL min^−1 10^−6 cells]	half-life at 10 μM [2] [min]	IC50 (IL-6; Homo sapiens) [µM]	IC50 (IL-1β; [5]) [µM]	Emax (NRF2; [3]) [%]	Emax (NRF2; [4]) [%]	T½ ([1]; Mouse hepatocytes) [min]	T½ ([2]; Human hepatocytes) [min]	EC50 (NRF2; −GSH) [µM]	NRF2 activation Emax, −GSH (NRF2; −GSH, normalised to dimethyl fumarate high control) [%]	IC50 (IL-6) [µM]	IC50 (IL-1β; differentiated THP-1 cells) [µM]
C=C(CC(=O)O)C(=O)OC1(c2ccc(C(F)(F)F)s2)CCC1 [Example 6, 3-((1-(5-(trifluoromethyl)thiophen-2-yl)cyclobutoxy)carbonyl)but-3-enoic acid]	<3	> 460	–	–	13	143	> 100	9.5	–	–	–	–	–	–	–	–
C=C(CC(=O)OCCCCCCCC)C(=O)O [4-octyl itaconate, reference compound]	351	–	–	–	401	–	–	–	–	–	4	4	–	–	–	–
C=C(CC(=O)O)C(=O)OC1(c2ccc(C(F)(F)F)c(F)c2)CCC1 [Example 3, 3-((1-(3-fluoro-4-(trifluoromethyl)phenyl)cyclobutoxy)carbonyl)but-3-enoic acid]	<3	> 460	–	–	<3	> 460	53.7	4.8	–	–	–	–	–	–	–	–
C=C(CC(=O)O)C(=O)OC1(c2ccc(C(F)(F)F)cn2)CCC1 [Example 5, 3-((1-(5-(trifluoromethyl)pyridin-2-yl)cyclobutoxy)carbonyl)but-3-enoic acid]	<3	> 460	–	–	<3	> 460	> 31.6	9	–	–	–	–	–	–	–	–
